Drawing on US11634701B2, “Metabolic pathways with increased carbon yield” (TOTAL RAFFINAGE CHIMIE, priority 2018, dated 2023), this text covers Km and Ki for 9 compounds.

Each structure is given as a SMILES string. Like-named read-outs stand apart in the source and are kept apart here.

Test [1] has as its system C. acetobutylicum Fba (fructose-1,6-bisphosphate aldolase). The note with it: measured experimentally or estimated from literature, cited from earlier work.
For test [2], the system named is C. acetobutylicum Tpi (triose phosphate isomerase). The note with it: measured experimentally or estimated from literature, cited from earlier work.
For test [3], the system named is C. acetobutylicum Tal (transaldolase). The note with it: measured experimentally or estimated from literature, cited from earlier work.
Test [4] deals with C. acetobutylicum Tkt′ (transketolase, second reaction). The note with it: measured experimentally or estimated from literature, cited from earlier work.
In test [5] the test system is C. acetobutylicum Fba (fructose-1,6-bisphosphate aldolase). Description: Kinetic parameters of C. acetobutylicum NOG enzymes (Fba). The class given is biochemical. The following applies: measured experimentally or estimated from literature; read-out: Kms. On the procedure:
(§1) The kinetic parameters of C. acetobutylicum enzymes involved in the NOG pathway were measured experimentally or estimated from literature (Table 1) and compiled in a COPASI toolbox for kinetic simulations.

Test [6] deals with C. acetobutylicum Fbp (fructose-1,6-biphosphatase). The test is described as follows: Kinetic parameters of C. acetobutylicum NOG enzymes (Fbp). The class given is biochemical. The note with it: measured experimentally or estimated from literature. On the procedure:
as §1

In test [7] the test system is C. acetobutylicum Tkt (transketolase). The following applies: measured experimentally or estimated from literature, cited from earlier work.
Test [8] has as its system C. acetobutylicum Rpi (ribose-5-phosphate isomerase). The following applies: measured experimentally or estimated from literature, cited from earlier work.
The subject of test [9] is C. acetobutylicum Rpe (ribulose-3-phosphate epimerase). The note with it: measured experimentally or estimated from literature, cited from earlier work.
The target in test [10] is T1, C. acetobutylicum Xpk (xylulose-5-phosphate phosphoketolase) (Clostridium acetobutylicum, UniProt Q97JE3).
T1 sequence (Q97JE3 1-796): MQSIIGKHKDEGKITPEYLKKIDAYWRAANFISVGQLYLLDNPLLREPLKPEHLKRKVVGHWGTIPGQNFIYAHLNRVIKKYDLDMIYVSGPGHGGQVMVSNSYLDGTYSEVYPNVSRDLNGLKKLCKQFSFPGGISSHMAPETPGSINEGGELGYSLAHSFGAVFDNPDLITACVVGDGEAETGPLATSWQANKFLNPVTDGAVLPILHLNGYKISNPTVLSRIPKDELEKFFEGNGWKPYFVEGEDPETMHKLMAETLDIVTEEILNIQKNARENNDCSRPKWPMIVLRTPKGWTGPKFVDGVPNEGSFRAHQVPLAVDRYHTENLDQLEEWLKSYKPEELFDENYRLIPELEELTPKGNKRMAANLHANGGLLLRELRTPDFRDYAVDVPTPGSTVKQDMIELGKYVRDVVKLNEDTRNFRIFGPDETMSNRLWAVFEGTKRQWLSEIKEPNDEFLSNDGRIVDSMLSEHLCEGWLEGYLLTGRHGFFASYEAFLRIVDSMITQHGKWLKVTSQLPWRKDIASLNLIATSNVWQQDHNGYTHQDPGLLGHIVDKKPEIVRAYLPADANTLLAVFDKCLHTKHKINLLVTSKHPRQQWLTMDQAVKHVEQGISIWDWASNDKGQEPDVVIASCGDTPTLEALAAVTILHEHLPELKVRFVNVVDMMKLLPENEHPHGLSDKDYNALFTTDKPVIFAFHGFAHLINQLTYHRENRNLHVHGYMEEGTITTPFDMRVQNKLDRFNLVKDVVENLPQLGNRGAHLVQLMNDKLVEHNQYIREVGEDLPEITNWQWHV
The test is described as follows: Kinetic parameters of C. acetobutylicum NOG enzymes (Xpk). The class given is biochemical. The following applies: measured experimentally or estimated from literature. Here is the method:
as §1

Regarding `O=C(CO)COP(=O)(O)O` [dihydroxyacetone phosphate], the figures for the Km in [1] (read-out: Kmp) and in test [2] (read-out: Kms) were 2000 µM and 6450 µM, respectively.

For the compound `O=C[C@H](O)[C@H](O)COP(=O)(O)O` [erythrose-4-phosphate], the results for the Km in test [3] (read-out: Kmq) and in test [4] (read-out: Kma) were 362 µM and 946 µM, respectively.

As to `O=P(O)(O)OC[C@H]1OC(O)(COP(=O)(O)O)[C@@H](O)[C@@H]1O` (stereo partly shown) [fructose-1,6-bisphosphate], the Km in test [5] is 1140 µM; in [6], 63 µM.

For `O=P(O)(O)OC[C@H]1OC(O)(CO)[C@@H](O)[C@@H]1O` (stereo partly shown) [fructose-6-phosphate], the Km in test [3] (read-out: Kmp) is 1440 µM; in [4] (read-out: Kmp) it was 1100 µM.

`O=C[C@H](O)COP(=O)(O)O` [glyceraldehyde-3-phosphate]: the Km is 272 µM in test [3] (read-out: Kma), 2400 µM in test [1] (read-out: Kmq), 5250 µM in [2] (read-out: Kmp) and 100 µM in test [4] (read-out: Kmq). Further, the Ki in test [1] (read-out: Kip) is 10 mM.

As for `O=P(O)(O)OC[C@H]1OC(O)[C@H](O)[C@@H]1O` (stereo partly shown) [ribose-5-phosphate], the results for the Km in [7] (read-out: Kmb) and in test [8] (read-out: Kmp) were 235 µM and 5700 µM, respectively.

With `O=C(CO)[C@H](O)[C@H](O)COP(=O)(O)O` [ribulose-5-phosphate], the Km is 2470 µM in [8] (read-out: Kms) and 5970 µM in test [9] (read-out: Kms).

For the compound `O=C(CO)[C@@H](O)[C@H](O)[C@H](O)[C@H](O)COP(=O)(O)O` [sedoheptulose-7-phosphate], the Km in test [3] (read-out: Kmb) was 786 µM; in test [7] (read-out: Kmq) it was 150 µM.

Regarding `O=C(CO)[C@@H](O)[C@H](O)COP(=O)(O)O` [xylulose-5-phosphate], the Km is 6400 µM in test [10], 7700 µM in [9] (read-out: Kmp) and 670 µM in test [4] (read-out: Kmb).
